This passage reports IC50 results from patent US11826351B2, “Compounds useful as kinase inhibitors” (Loxo Oncology, Inc., priority 2015, dated 2023).

Assay [1] concerns the target T1, Recombinant BTK^WT kinase (Homo sapiens, UniProt Q06187).
T1 construct: purchased Invitrogen
As to the kind of experiment: BTK WT binding affinity (LanthaScreen TR-FRET). The following applies: Kinase Tracer 236, 5 h incubation. As to the method: BTK^WT binding affinity of each compound tested was determined using a time-resolved fluorescence resonance energy transfer (TR-FRET) methodology. 2.5 nM Recombinant BTK^WT kinase, varying concentrations of inhibitor, 2 nM LanthaScreen™ Eu anti-His Antibody and 15 nM Kinase Tracer 236 was incubated in 1× LanthaScreen™ Kinase Buffer A for 5 h. Recombinant BTK kinase and all LanthaScreen™ components were purchased from Invitrogen. Measurements were performed in a reaction volume of 30 μL using half-area 96-well assay plates. The TR-FRET signal was read on a plate reader with an excitation wavelength of 340 nm and detection wavelengths of 615 and 665 nm. Binding affinity was determined for each compound by measuring TR-FRET signal at various concentrations of compound and plotting the relative fluorescence units against the inhibitor concentration to estimate the IC50 from log[Inhibitor] vs response using the Variable Slope model in Graphpad prism from Graphpad software (San Diego, Calif.).
On the technique in general: In TR-FRET formats the signal depends on donor and acceptor labels being close together.

The target in assay [2] is T2, Recombinant BTK^C481S kinase (Homo sapiens, UniProt Q06187, C481S).
T2 construct: purchased SignalChem
As to the kind of experiment: BTK C481S binding affinity (LanthaScreen TR-FRET). The following applies: Kinase Tracer 236, 5 h incubation. The method, then:
BTK^C481S binding affinity of each compound tested was determined using a time-resolved fluorescence resonance energy transfer (TR-FRET) methodology. 5 nM Recombinant BTK^WT kinase, varying concentrations of inhibitor, 2 nM LanthaScreen™ Eu anti-His Antibody and 30 nM Kinase Tracer 236 was incubated in 1× LanthaScreen™ Kinase Buffer A for 5 h. Recombinant BTK^C481S kinase was purchased from SignalChem and all LanthaScreen™ components were purchased from Invitrogen. Measurements were performed in a reaction volume of 30 μL using half-area 96-well assay plates. The TR-FRET signal was read on a plate reader with an excitation wavelength of 340 nm and detection wavelengths of 615 and 665 nm. Binding affinity was determined for each compound by measuring TR-FRET signal at various concentrations of compound and plotting the relative fluorescence units against the inhibitor concentration to estimate the IC50 from log[Inhibitor] vs response using the Variable Slope model in Graphpad prism from Graphpad software (San Diego, Calif.).

The target in assay [3] is T3, Recombinant EGFR (Homo sapiens, UniProt P00533).
T3 construct: purchased Invitrogen
As to the kind of experiment: EGFR binding affinity (LanthaScreen TR-FRET). The following applies: Kinase Tracer 199, 5 h incubation. As to the method: EGFR binding affinity was determined using a time-resolved fluorescence resonance energy transfer (TR-FRET) methodology. […] Recombinant EGFR and all LanthaScreen™ components were purchased from Invitrogen. Measurements were performed in a reaction volume of 30 μL using half-area 96-well assay plates. […] Binding affinity was determined for each compound by measuring TR-FRET signal at various concentrations of compound and plotting the relative fluorescence units against the inhibitor concentration to estimate the IC50 from log[Inhibitor] vs response using the Variable Slope model in Graphpad prism from Graphpad software (San Diego, Calif.).

For assay [4], the system named is OCI-Ly10 human DLBCL cells. As to the kind of experiment: OCI-Ly10 anti-proliferative activity (Resazurin). The assay is classed as cell-based. The following applies: OCI-Ly10 cells, 72 h compound treatment, Resazurin, read-out: Proliferation Assay OCI-Ly10-20% FBS. As to the method: Compounds were assayed for effects on the growth of OCI-Ly10 human DLBCL cells that are dependent on NFκB signalling. […] Cells were then plated at 7.5×10^3 cells per well in 96-well plates in varying concentrations of compound and incubated for 72 h at 37° C. An additional plate of cells to be used as the Day 0 read was seeded without compound addition, Resazurin was added to each well, incubated for 5 h and the fluorescence measured at 590 nm. After 72 h of compound treatment, Resazurin was added to each well of the compound treated plates, incubated for 5 h and the fluorescence measured at 590 nm. The IC50 was then calculated by subtracting the average Day 0 value from each well value from the treated plates, each treatment was then calculated as a percentage of the DMSO control and the percentages plotted against the inhibitor concentration to estimate the IC50 from log[Inhibitor] vs response using the Variable Slope model in Graphpad prism from Graphpad software (San Diego, Calif.).
In general terms: The colour change of resazurin is a common sign of viable cells or microbes.

Where two headings read alike, the source gives them in different places.

T2 sequence (Q06187 whole entry C481S): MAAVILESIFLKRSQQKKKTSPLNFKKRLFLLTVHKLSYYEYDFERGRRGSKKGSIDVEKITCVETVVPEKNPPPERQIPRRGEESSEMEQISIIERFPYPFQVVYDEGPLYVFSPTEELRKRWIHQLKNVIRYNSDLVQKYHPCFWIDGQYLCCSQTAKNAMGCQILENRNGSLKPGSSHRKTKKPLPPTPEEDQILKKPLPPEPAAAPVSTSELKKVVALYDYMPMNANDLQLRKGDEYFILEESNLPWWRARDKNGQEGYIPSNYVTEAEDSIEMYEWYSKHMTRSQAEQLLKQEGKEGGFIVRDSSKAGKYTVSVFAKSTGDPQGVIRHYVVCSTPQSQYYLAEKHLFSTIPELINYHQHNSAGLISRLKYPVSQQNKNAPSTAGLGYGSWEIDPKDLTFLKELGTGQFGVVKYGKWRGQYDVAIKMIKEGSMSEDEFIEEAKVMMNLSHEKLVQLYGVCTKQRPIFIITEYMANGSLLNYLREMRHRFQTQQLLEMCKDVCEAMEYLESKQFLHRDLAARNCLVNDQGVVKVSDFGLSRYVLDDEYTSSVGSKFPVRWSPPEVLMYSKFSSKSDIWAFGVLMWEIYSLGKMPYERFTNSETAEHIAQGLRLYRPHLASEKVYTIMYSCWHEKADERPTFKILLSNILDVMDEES
T3 sequence (P00533 25-1210): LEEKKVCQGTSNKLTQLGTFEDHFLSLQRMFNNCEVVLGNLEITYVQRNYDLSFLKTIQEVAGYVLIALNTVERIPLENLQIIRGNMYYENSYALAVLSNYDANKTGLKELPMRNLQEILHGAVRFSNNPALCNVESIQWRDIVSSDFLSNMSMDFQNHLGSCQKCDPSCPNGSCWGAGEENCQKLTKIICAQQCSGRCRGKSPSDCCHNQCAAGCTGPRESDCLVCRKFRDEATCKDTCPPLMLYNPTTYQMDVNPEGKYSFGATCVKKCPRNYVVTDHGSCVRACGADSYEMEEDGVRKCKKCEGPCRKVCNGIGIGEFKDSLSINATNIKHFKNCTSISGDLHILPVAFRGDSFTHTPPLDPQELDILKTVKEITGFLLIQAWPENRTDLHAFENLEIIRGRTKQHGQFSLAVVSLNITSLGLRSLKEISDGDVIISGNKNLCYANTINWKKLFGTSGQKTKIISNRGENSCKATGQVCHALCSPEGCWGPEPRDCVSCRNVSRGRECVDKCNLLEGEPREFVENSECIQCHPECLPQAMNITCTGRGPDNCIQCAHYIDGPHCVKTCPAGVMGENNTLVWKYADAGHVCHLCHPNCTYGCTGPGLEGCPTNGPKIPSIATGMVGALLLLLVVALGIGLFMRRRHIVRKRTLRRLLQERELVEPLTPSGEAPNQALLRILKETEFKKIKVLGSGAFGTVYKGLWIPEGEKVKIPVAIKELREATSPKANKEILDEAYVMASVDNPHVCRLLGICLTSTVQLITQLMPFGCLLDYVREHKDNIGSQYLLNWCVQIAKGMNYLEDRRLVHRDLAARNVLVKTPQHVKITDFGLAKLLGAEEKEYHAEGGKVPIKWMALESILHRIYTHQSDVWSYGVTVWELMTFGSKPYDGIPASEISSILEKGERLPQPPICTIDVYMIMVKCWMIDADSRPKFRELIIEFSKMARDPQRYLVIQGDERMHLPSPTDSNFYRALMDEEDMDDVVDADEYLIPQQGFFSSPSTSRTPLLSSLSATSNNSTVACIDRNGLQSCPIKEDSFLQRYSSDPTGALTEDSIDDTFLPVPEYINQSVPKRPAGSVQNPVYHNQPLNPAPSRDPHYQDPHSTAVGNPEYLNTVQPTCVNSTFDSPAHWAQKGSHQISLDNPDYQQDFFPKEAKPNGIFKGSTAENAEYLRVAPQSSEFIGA
T1 sequence (Q06187 whole entry): as the sequence (Q06187 whole entry C481S) above, with S481C counted along it

As for `COc1ccccc1C(=O)NCc1ccc(-c2nn(C3CCC(C)C3)c(N)c2C(N)=O)cc1` (stereo not drawn) [Example 5, 5-Amino-3-[4-[[(2-methoxybenzoyl)amino]methyl]phenyl]-1-(3-methylcyclopentyl)pyrazole-4-carboxamide], the IC50 was less than 10 nM in assay [1]; less than 10 nM in assay [2]; 100 to 1000 nM in assay [3]; 10 to 100 nM in assay [4] (Homo sapiens, OCI-Ly10, 72 h).

Regarding `COc1ccccc1C(=O)NCc1ccc(-c2nn(C3CC3)c(N)c2C(N)=O)cc1` [Example 29, 5-Amino-1-cyclopropyl-3-[4-[[(2-methoxybenzoyl)amino]methyl]phenyl]pyrazole-4-carboxamide], the IC50 in assay [1] was less than 10 nM; in assay [2], less than 10 nM; in assay [3] it was 1000 to 10000 nM; in assay [4] (Homo sapiens, OCI-Ly10, 72 h), 100 to 1000 nM.

On to `COc1ccc(F)cc1C(=O)NCc1ccc(-c2nn(C3CN(C(C)C)CC3(F)F)c(N)c2C(N)=O)cc1` (stereo not drawn) [Example 197, 5-amino-1-(4,4-difluoro-1-isopropyl-pyrrolidin-3-yl)-3-[4-[[(5-fluoro-2-methoxy-benzoyl)amino]methyl]phenyl]pyrazole-4-carboxamide], for which the IC50 in assay [1] is less than 10 nM; in assay [2], less than 10 nM; in assay [3], 1000 to 10000 nM; in assay [4] (Homo sapiens, OCI-Ly10, 72 h), 10 to 100 nM.

Turning to `COc1ccccc1C(=O)NCc1ccc(-c2nn(C3CCCC3)c(Cl)c2C(N)=O)cc1` [Example 78, 5-chloro-1-cyclopentyl-3-[4-[[(2-methoxybenzoyl)amino]methyl]phenyl]pyrazole-4-carboxamide], the IC50 in assay [1] was 10 to 100 nM; in assay [2], 10 to 100 nM; in assay [3] it was greater than 10000 nM; in assay [4] (Homo sapiens, OCI-Ly10, 72 h) it was 1000 to 10000 nM.

In the case of `COc1ccccc1C(=O)NCc1ccc(-c2nn(C3CCCC(C(=O)N(C)C)C3)c(N)c2C(N)=O)cc1` (single isomer, unassigned) [Example 70, 5-amino-1-[3-(dimethylcarbamoyl)cyclohexyl]-3-[4-[[(2-methoxybenzoyl)amino]methyl]phenyl]pyrazole-4-carboxamide], the IC50 is less than 10 nM in assay [1]; less than 10 nM in assay [2]; 100 to 1000 nM in assay [3]; 10 to 100 nM in assay [4] (Homo sapiens, OCI-Ly10, 72 h).

On to `COc1ccccc1C(=O)NCc1ccc(-c2nn([C@@H]3COC[C@H]3O)c(N)c2C(N)=O)cc1` (relative stereo) [Example 94, 5-amino-1-[trans-4-hydroxytetrahydrofuran-3-yl]-3-[4-[[(2-methoxybenzoyl)amino]methyl]phenyl]pyrazole-4-carboxamide], for which the IC50 in assay [1] is 10 to 100 nM; in assay [2] it was less than 10 nM; in assay [3], 1000 to 10000 nM; in assay [4] (Homo sapiens, OCI-Ly10, 72 h), 1000 to 10000 nM.

Turning to `COc1ccccc1C(=O)NCc1c(F)cc(-c2nn(C3CCOCC3)c(N)c2C(N)=O)cc1F` [Example 132, 5-amino-3-[3,5-difluoro-4-[[(2-methoxybenzoyl)amino]methyl]phenyl]-1-tetrahydropyran-4-yl-pyrazole-4-carboxamide], the IC50 in assay [1] is 100 to 1000 nM; in assay [2], 10 to 100 nM; in assay [3], greater than 10000 nM.

As for `COc1ccc(F)cc1C(=O)NCc1ccc(-c2nn(C(C)C(F)(F)F)c(N)c2C(N)=O)c(F)c1` (stereo not drawn) [Example 179, 5-amino-3-[2-fluoro-4-[[(5-fluoro-2-methoxy-benzoyl)amino]methyl]phenyl]-1-(2,2,2-trifluoro-1-methyl-ethyl)pyrazole-4-carboxamide], the IC50 in assay [1] is less than 10 nM; in assay [2] it was less than 10 nM; in assay [3] it was 1000 to 10000 nM; in assay [4] (Homo sapiens, OCI-Ly10, 72 h), 10 to 100 nM.

`CNc1c(C(N)=O)c(-c2ccc(CNC(=O)c3ccccc3OC)cc2)nn1C1CCCC1` [Example 60, 1-cyclopentyl-3-[4-[[(2-methoxybenzoyl)amino]methyl]phenyl]-5-(methylamino)pyrazole-4-carboxamide]: the IC50 in assay [1] is less than 10 nM; in assay [2], less than 10 nM; in assay [3], 100 to 1000 nM; in assay [4] (Homo sapiens, OCI-Ly10, 72 h), 10 to 100 nM.

Regarding `COc1ccc(F)cc1C(=O)NCc1c(F)cc(-c2nn(C3CCOCC3)c(N)c2C(N)=O)cc1F` [Example 133, 5-amino-3-[3,5-difluoro-4-[[(5-fluoro-2-methoxy-benzoyl)amino]methyl]phenyl]-1-tetrahydropyran-4-yl-pyrazole-4-carboxamide], the values for the IC50 in assay [1], in assay [2] and in assay [3] were 100 to 1000 nM, 10 to 100 nM and greater than 10000 nM, respectively.

In the case of `COc1ccccc1C(=O)NCc1ccc(-c2nn(C3CCCC3)c(Nc3ccccc3)c2C(N)=O)cc1` [Example 56, 5-anilino-1-cyclopentyl-3-[4-[[(2-methoxybenzoyl)amino]methyl]phenyl]pyrazole-4-carboxamide], the IC50 in assay [1] lay within 100 to 1000 nM; in assay [2], 100 to 1000 nM; in assay [4] (Homo sapiens, OCI-Ly10, 72 h), 1000 to 10000 nM.

As to `COc1ccccc1C(=O)NCc1ccc(-c2nn(C[C@H]3CCCNC3)c(N)c2C(N)=O)cc1` [Example 42, 5-amino-3-[4-[[(2-methoxybenzoyl)amino]methyl]phenyl]-1-[[(3S)-3-piperidyl]methyl]pyrazole-4-carboxamide], the IC50 in assay [1] and in assay [3] was greater than 10000 nM each time.

For `COc1ccccc1C(=O)NCc1ccc(-c2nn([C@@H]3CCC[C@H]3O)c(N)c2C(N)=O)cc1` (relative stereo) [Example 2, 5-Amino-1-[(1R*,2R*)-2-hydroxycyclopentyl]-3-[4-[[(2-methoxybenzoyl)amino]methyl]phenyl]pyrazole-4-carboxamide], the IC50 was less than 10 nM in assay [1]; less than 10 nM in assay [2]; 100 to 1000 nM in assay [4] (Homo sapiens, OCI-Ly10, 72 h).

As to `COc1ccccc1C(=O)NCc1ccc(-c2nn(-c3nc(C)cs3)c(N)c2C(N)=O)cc1` [Example 67, 5-amino-3-[4-[[(2-methoxybenzoyl)amino]methyl]phenyl]-1-(4-methylthiazol-2-yl)pyrazole-4-carboxamide], the IC50 in assay [1] lay within 100 to 1000 nM.

On to `COc1ccccc1C(=O)NC(CO)c1ccc(-c2nn(C3CCCC3)c(N)c2C(N)=O)cc1C` (stereo not drawn) [Example 185, 5-amino-1-cyclopentyl-3-[4-[2-hydroxy-1-[(2-methoxybenzoyl)amino]ethyl]-3-methyl-phenyl]pyrazole-4-carboxamide], for which the IC50 in assay [1], in assay [2] and in assay [3] was 1000 to 10000 nM each time.

On to `CNC(=O)c1c(-c2ccc(CNC(=O)c3ccccc3OC)cc2)nn(C2CCCC2)c1N` [Example 69, 5-amino-1-cyclopentyl-3-[4-[[(2-methoxybenzoyl)amino]methyl]phenyl]-N-methyl-pyrazole-4-carboxamide], for which the IC50 in assay [1] is greater than 10000 nM.

As for `COc1ccc(F)cc1C(=O)NCc1ccc(-c2nn(C(C3CC3)C(F)(F)F)c(N)c2C(N)=O)cc1` (stereo not drawn) [Example 188, 5-amino-1-(1-cyclopropyl-2,2,2-trifluoro-ethyl)-3-[4-[[(5-fluoro-2-methoxy-benzoyl)amino]methyl]phenyl]pyrazole-4-carboxamide], the IC50 is less than 10 nM in assay [1], less than 10 nM in assay [2] and 1000 to 10000 nM in assay [3].

On to `COc1ccccc1C(=O)NCc1ccc(-c2nn(C3CCC(C)(O)CC3)c(N)c2C(N)=O)cc1` (single isomer, unassigned) [Example 27, 5-Amino-1-(4-hydroxy-4-methyl-cyclohexyl)-3-[4-[[(2-methoxybenzoyl)amino]methyl]phenyl]pyrazole-4-carboxamide], for which the values for the IC50 in assay [1], in assay [3] and in assay [4] were less than 10 nM, 100 to 1000 nM and 10 to 100 nM, respectively.
